Reference: patent publication US8247211B2, “Glycopeptide antibiotics” (American Cyanamid Company, priority 2001, dated 2012)

How the values were obtained:
Escherichia coli = experiment: In vitro antibacterial evaluation: minimum inhibitory concentration (MIC), broth dilution method; format: cell-based; settings: 5×10^5 CFU/mL, 18 hours at 35° C.
Summary of the method: (§1)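 NCCLS M7-A2 broth dilution with Mueller-Hinton II, testing 64-0.06 μg/mL antibiotic against 5×10^5 CFU/mL inocula. Test strains include recent methicillin-, penicillin- or vancomycin-resistant clinical isolates. MIC is the lowest concentration preventing growth.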

Enterococcus sp. = experiment: as above; format: cell-based; settings: broth dilution, 5×10^5 CFU/mL, 18 hours at 35° C.
Summary of the method: as §1

Streptococcus sp. = experiment: as above; format: cell-based; settings: broth dilution, 5×10^5 CFU/mL, 18 hours at 35° C.
Summary of the method: as §1

Staphylococcus sp. = experiment: as above; format: cell-based; settings: for MIC Staphylococcus aureus-SMITH (GC 4543): strain GC 4543; for MIC Staphylococcus haemolyticus (GC 4546): strain GC 4546; for MIC Coagulase Negative Staphylococcus (GC 4547): strain GC 4547; for MIC Coagulase Negative Staphylococcus (GC 4548): strain GC 4548; for MIC Coagulase Negative Staphylococcus (GC 4549): strain GC 4549; for MIC Coagulase Negative Staphylococcus (GC 4551): strain GC 4551; for MIC Coagulase Negative Staphylococcus (GC 6257): strain GC 6257
Summary of the method: as §1

[1] = test system: Streptococcus pneumoniae (GC 1894), penicillin resistant strain; experiment: Acute lethal infection in mice (ED50); format: in vivo; settings: female CD-1 mice, intraperitoneal challenge, intravenous dose 30 min. after infection, 7 day survival ratios
Summary of the method: (§2)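 Female CD-1 mice challenged intraperitoneally with a bacterial dose lethal to untreated controls within 24-48 h. Compound given intravenously in saline or 5% dextrose 30 min post-infection, five mice per dose; ED50 from 7-day survival pooled over 3 tests.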

[2] = test system: Enterococcus faecalis (GC 6189), vancomycin resistant strain; experiment: Acute lethal infection in mice (ED50); format: in vivo; settings: female CD-1 mice, intraperitoneal challenge, intravenous dose 30 min. after infection, 7 day survival ratios
Summary of the method: as §2

[3] = test system: Staphylococcus aureus-SMITH (GC 4543); experiment: Acute lethal infection in mice (ED50); format: in vivo; settings: female CD-1 mice, intraperitoneal challenge, intravenous dose 30 min. after infection, 7 day survival ratios
Summary of the method: as §2

[4] = Anatomic pathology (heart and kidney histopathology) in mice; format: in vivo, CD-1 mice; settings: 20 mg/kg intravenously daily for 9 days, microscopic histopathology on day 10
Summary of the method: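 Juvenile CD-1 mice (20 days old; 5 vehicle, 5 treated) received glycopeptide antibiotic 20 mg/kg i.v. daily for 9 days. Necropsied tissues formalin-fixed, paraffin-embedded, H&E stained and examined microscopically; findings graded slight to severe versus controls.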

[5] = format: in vivo; settings: mice, 20 mg/kg intravenously daily for 9 days, serum on day 10
Experimental: 20-day-old CD-1 mice were divided into a vehicle control group (5 mice) and a treatment group (5 mice). Samples of glycopeptide antibiotics were administered at 20 mg/kg intravenously daily for 9 days. Animals were necropsied on day 10 Sera were analyzed for BUN (blood urea nitrogen), creatinine, AST (aspartic aminotransferase), and ALT (alanine aminotransferase) by routine, standard, automated methods using an Hitachi 747 chemistry analyzer.

[6] = broth dilution, 18 hours at 35° C.

CC(c1ccccc1)C1NC(=O)CNC(=O)C(CO)NC(=O)C(C(O)C2CNC(=N)N2C2OC(CO)C(O)C(O)C2O)NC(=O)C(C(O)C2CNC(=N)N2)NC(=O)C(Cc2ccc(OC3OC(CO)C(OC4OC5COC(c6ccccc6)OC5C(O)C4O)C(O)C3O)cc2)NC1=O (stereo not drawn) [Example 104, Cyclo[glycyl-β-methylphenylalanyl-O-[4-O-(4,6-O-benzylidenehexopyranosyl)hexopyranosyl]-tyrosyl-3-(2-iminoimidazolidin-4-yl)seryl-3-(3-hexopyranosyl-2-iminoimidazolidin-4-yl)-serylseryl]]
2 µg/mL: MIC Enterococccus faecalis (GC 6189) (Enterococcus sp.) | MIC Enterococccus faecium (GC 2243) (Enterococcus sp.) | MIC Enterococccus faecium (GC 4557) (Enterococcus sp.) | MIC Enterococcus faecalis (GC 2242) (Enterococcus sp.) | MIC Staphylococcus aureus (GC 1131) (Staphylococcus sp.; strain GC 1131)
1 µg/mL: MIC Staphylococcus aureus (ATCC 29213) (Staphylococcus sp.; strain ATCC 29213) | MIC Staphylococcus aureus (GC 3051) (Staphylococcus sp.; strain GC 3051) | MIC Staphylococcus aureus (GC 3053) (Staphylococcus sp.; strain GC 3053) | MIC Staphylococcus aureus (GC 4541) (Staphylococcus sp.; strain GC 4541) | MIC Staphylococcus aureus (GC 4544) (Staphylococcus sp.; strain GC 4544) | MIC Coagulase Negative Staphylococcus (GC 4547) (Staphylococcus sp.) | MIC Coagulase Negative Staphylococcus (GC 4547) (Staphylococcus sp.; [6]) | MIC Coagulase Negative Staphylococcus (GC 4551) (Staphylococcus sp.) | MIC Coagulase Negative Staphylococcus (GC 4551) (Staphylococcus sp.; [6])
0.22 mg/kg: median effective dose (ED50), Streptococcus pneumoniae (GC 1894) [1]
+65%: Clinical Chemistry (Day 10) % of Control, Creatinine [5]
0.39-0.63: median effective dose (ED50), Enterococcus faecalis (GC 6189) [2]
0.5 µg/mL: MIC Staphylococcus aureus (GC 4542) (Staphylococcus sp.; strain GC 4542) | MIC Staphylococcus haemolyticus (GC 4546) (Staphylococcus sp.) | MIC Staphylococcus haemolyticus (GC 4546) (Staphylococcus sp.; [6]) | MIC Coagulase Negative Staphylococcus (GC 4549) (Staphylococcus sp.) | MIC Coagulase Negative Staphylococcus (GC 4549) (Staphylococcus sp.; [6]) | MIC Coagulase Negative Staphylococcus (GC 6257) (Staphylococcus sp.) | MIC Coagulase Negative Staphylococcus (GC 6257) (Staphylococcus sp.; [6])
2 to 4 µg/mL: MIC Enterococccus avium (GC 4558) (Enterococcus sp.) | MIC Enterococccus faecalis (ATCC 29212) (Enterococcus sp.) | MIC Enterococccus faecium (GC 4556) (Enterococcus sp.)
<0.12 µg/mL: MIC Streptococcus pneumoniae (GC 1894) (Streptococcus sp.) | MIC Streptococcus pneumoniae (GC 4565) (Streptococcus sp.) | MIC Streptococcus pneumonine (ATCC 6301) (Streptococcus sp.) | MIC Streptococcus pyogenes (GC 4563) (Streptococcus sp.)
0.5 to 1 µg/mL: MIC Escherichia coli (GC 4560) (Escherichia coli) | MIC Staphylococcus aureus-SMITH (GC 4543) (Staphylococcus sp.; 18 hours at 35° C.) | MIC Staphylococcus aureus-SMITH (GC 4543) (Staphylococcus sp.; [6]) | MIC Staphylococcus aureus (GC 4545) (Staphylococcus sp.; strain GC 4545) | MIC Coagulase Negative Staphylococcus (GC 4548) (Staphylococcus sp.) | MIC Coagulase Negative Staphylococcus (GC 4548) (Staphylococcus sp.; [6])
0.19 mg/kg: median effective dose (ED50), Staphylococcus aureus-SMITH (GC 4543) [3]
+++: Anatomical Pathology (Day 10), Heart [4] | Anatomical Pathology (Day 10), Kidney [4]
4 µg/mL: MIC Enterococccus faecalis (GC 2691) (Enterococcus sp.) | MIC Enterococccus faecalis (GC 3059) (Enterococcus sp.) | MIC Enterococccus faecalis (GC 4552) (Enterococcus sp.) | MIC Enterococccus faecalis (GC 4553) (Enterococcus sp.) | MIC Enterococccus faecalis (GC 4554) (Enterococcus sp.)
+87%: Clinical Chemistry (Day 10) % of Control, AST [5]
